Patent US12528815B2, “5-amino-8-(4-pyridyl)-[1,2,4]triazolo[4,3-c]pyrimidin-3-one compounds for use against cancer” (Nxera Pharma UK Limited, priority 2020, dated 2026)

Columns and labels:
[1] = target: T1, human adenosine A1 receptor (Homo sapiens, UniProt P30542); test: Inhibition binding assay, human adenosine A1 receptor membranes, [3H]DPCPX; details: 1 nM [3H]DPCPX, 25° C., 1 h; IC50 converted to Ki with Cheng-Prusoff; read-out: A1 pKi (converted)
T1 construct: expressed in transfected cells; host or cells: HEK293 cells infected with BacMam (the same paragraph also labels the preparation CHO-hA1)
T1 sequence (P30542 1-326): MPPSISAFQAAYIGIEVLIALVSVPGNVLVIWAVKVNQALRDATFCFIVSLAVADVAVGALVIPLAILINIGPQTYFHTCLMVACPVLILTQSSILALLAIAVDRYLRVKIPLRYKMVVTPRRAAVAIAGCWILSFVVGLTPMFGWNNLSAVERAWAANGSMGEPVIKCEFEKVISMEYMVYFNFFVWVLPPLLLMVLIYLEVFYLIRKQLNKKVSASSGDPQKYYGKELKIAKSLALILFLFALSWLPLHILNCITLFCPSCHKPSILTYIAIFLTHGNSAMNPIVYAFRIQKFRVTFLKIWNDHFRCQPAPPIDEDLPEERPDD
Outline: (§1)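 Membranes from BacMam-infected HEK293 cells (0.2 μg A2A, 1.4 μg A1) incubated 1 h at 25° C with test compound and 1 nM [3H]ZM241385 (A2A; 50 mM Tris-HCl pH 7.4) or [3H]DPCPX (A1; plus 100 mM NaCl, 10 mM MgCl2). Nonspecific: 1 μM CGS15943 or DPCPX. Filtration, scintillation; IC50 converted to Ki via Cheng-Prusoff.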

[2] = target: T2, human CB-1 cannabinoid receptor (Homo sapiens, UniProt P21554); test: CB1 receptor radioligand binding assay, [3H]CP 55940, transfected CHO cell membranes; details: 0.5 nM [3H]CP 55940, CHO membrane homogenates, 120 min at 37° C.
T2 construct: expressed in transfected cells; host or cells: CHO cells
T2 sequence (P21554 whole entry): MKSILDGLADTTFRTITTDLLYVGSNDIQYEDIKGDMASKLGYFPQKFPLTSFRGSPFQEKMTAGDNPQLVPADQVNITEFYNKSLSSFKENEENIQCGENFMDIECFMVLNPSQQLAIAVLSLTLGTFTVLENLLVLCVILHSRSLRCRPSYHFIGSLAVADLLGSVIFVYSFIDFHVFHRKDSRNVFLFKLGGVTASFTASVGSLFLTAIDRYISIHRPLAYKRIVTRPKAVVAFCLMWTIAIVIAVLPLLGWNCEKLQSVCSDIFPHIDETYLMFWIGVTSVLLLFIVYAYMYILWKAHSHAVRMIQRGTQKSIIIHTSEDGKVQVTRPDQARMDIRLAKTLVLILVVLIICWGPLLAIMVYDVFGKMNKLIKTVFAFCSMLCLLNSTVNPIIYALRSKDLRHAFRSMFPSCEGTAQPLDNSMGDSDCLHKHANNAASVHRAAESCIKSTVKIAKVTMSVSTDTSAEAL
Procedure: Nonspecific binding is determined in the presence of 10 μM WIN 55212-2.
Following incubation, the samples are filtered rapidly under vacuum through glass fiber filters (GF/B, Packard) presoaked with 0.3% PEI and rinsed several times with an ice-cold buffer containing 50 mM Tris-HCl (pH 7.4) and 0.5% BSA using a 96-sample cell harvester (Unifilter, Packard). The filters are dried then counted for radioactivity in a scintillation counter (Topcount, Packard) using a scintillation cocktail (Microscint 0, Packard).
The standard reference compound is CP 55940 which is tested in each experiment at several concentrations to obtain a competition curve from which its IC50 is calculated.

human CB1 receptor = target: T3, human CB1 receptor (Homo sapiens, UniProt P21554); test: CB1 receptor antagonism, agonist-induced cAMP modulation (HTRF) in transfected CHO cells; format: cell-based; details: read-out: Antag IC50
T3 construct: expressed in transfected cells; host or cells: CHO cells
T3 sequence (P21554 whole entry): as above
Procedure: Receptor antagonism: Evaluation of the antagonist activity of compounds at the human CB1 receptor expressed in transfected CHO cells, determined by measuring their effects on agonist-induced cAMP modulation using the HTRF detection method.
Thereafter, the reference agonist CP 55940 and the adenylyl cyclase activator NKH 477 are added at respective final concentrations of 3 nM and 3 μM.
For basal control measurements, CP 55940 is omitted from the wells containing 3 μM AM 281.
Following 20 min incubation at 37° C., the cells are lysed and the fluorescence acceptor (D2-labeled cAMP) and fluorescence donor (anti-cAMP antibody labeled with europium cryptate) are added.
After 60 min at room temperature, the fluorescence transfer is measured at λex=337 nm and λem=620 and 665 nm using a microplate reader (Rubystar, BMG). The cAMP concentration is determined by dividing the signal measured at 665 nm by that measured at 620 nm (ratio).
The standard reference antagonist is AM 281, which is tested in each experiment at several concentrations to generate a concentration-response curve from which its IC50 value is calculated.

[3] = target: T4, human adenosine A2A receptor (Homo sapiens, UniProt P29274); test: Inhibition binding assay, human adenosine A2A receptor membranes, [3H]ZM241385; details: 1 nM [3H]ZM241385, HEK293-hA2A membranes, 25° C., 1 h; IC50 converted to Ki with Cheng-Prusoff; read-out: A2A pKi (converted)
T4 construct: expressed in transfected cells; host or cells: HEK293 cells infected with BacMam
T4 sequence (P29274 whole entry): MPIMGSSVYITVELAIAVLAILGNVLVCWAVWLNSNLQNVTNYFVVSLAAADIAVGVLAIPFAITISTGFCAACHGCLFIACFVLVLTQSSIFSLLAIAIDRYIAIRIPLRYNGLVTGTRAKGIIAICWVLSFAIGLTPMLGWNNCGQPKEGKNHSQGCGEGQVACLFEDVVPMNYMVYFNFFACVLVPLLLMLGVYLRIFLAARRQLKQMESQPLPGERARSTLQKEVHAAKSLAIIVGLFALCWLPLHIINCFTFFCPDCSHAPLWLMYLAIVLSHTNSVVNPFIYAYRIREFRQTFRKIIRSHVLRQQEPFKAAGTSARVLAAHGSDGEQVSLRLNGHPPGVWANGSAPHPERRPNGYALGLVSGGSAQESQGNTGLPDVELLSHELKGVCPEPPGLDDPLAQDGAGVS
Outline: as §1

Row | Ki [1] | Ki [2] | IC50 (human CB1 receptor) | Ki [3] | Structure (SMILES)
1 | 398 nM | 2600 nM | 5000 nM | 6.31 nM | Cc1cc(-c2c(-c3ccccc3)nc(N)n3c(=O)n(C(C)c4ccc(F)cc4F)nc23)cc(C)n1 (centres unmarked) [Example 1-11, 5-amino-2-[1-(2,4-difluorophenyl)ethyl]-8-(2,6-dimethyl-4-pyridyl)-7-phenyl-[1,2,4]triazolo[4,3-c]pyrimidin-3-one]
2 | 126 nM | 39100 nM | 17900 nM | 3.16 nM | Cc1cc(-c2c(-c3ccccc3)nc(N)n3c(=O)n(Cc4ccc(F)cn4)nc23)cc(N2CCC2)n1 [Example 1-75, 5-amino-8-[2-(azetidin-1-yl)-6-methyl-4-pyridyl]-2-[(5-fluoro-2-pyridyl)methyl]-7-phenyl-[1,2,4]triazolo[4,3-c]pyrimidin-3-one]
3 | 501 nM | 22000 nM | 26500 nM | 2 nM | Cc1cc(-c2c(-c3ccccc3)nc(N)n3c(=O)n(CCC(F)(F)F)nc23)cc(C)n1 [Example 2-6, 5-amino-8-(2,6-dimethyl-4-pyridyl)-7-phenyl-2-(3,3,3-trifluoropropyl)-[1,2,4]triazolo[4,3-c]pyrimidin-3-one]
4 | 200 nM | 14600 nM | 2400 nM | 7.94 nM | Cc1cc(-c2c(-c3ccccc3)nc(N)n3c(=O)n(CC45C6C7C4C4C5C6C74F)nc23)cc(CO)n1 (centres unmarked) [Example 2-60, 5-amino-2-[(4-fluorocuban-1-yl)methyl]-8-[2-(hydroxymethyl)-6-methyl-4-pyridyl]-7-phenyl-[1,2,4]triazolo[4,3-c]pyrimidin-3-one]
5 | 398 nM | 40000 nM | 63300 nM | 1.58 nM | Cc1cc(-c2c(-c3ccccc3)nc(N)n3c(=O)n(Cc4ccc(F)cn4)nc23)cc(CO)n1 [Example 1-44, 5-amino-2-[(5-fluoro-2-pyridyl)methyl]-8-[2-(hydroxymethyl)-6-methyl-4-pyridyl]-7-phenyl-[1,2,4]triazolo[4,3-c]pyrimidin-3-one]
6 | 31.6 nM | 3600 nM | 1700 nM | 0.398 nM | Cc1cc(-c2c(-c3ccccc3)nc(N)n3c(=O)n(Cc4ccc(F)cc4)nc23)cc(C)n1 [Example 1-1, 5-amino-8-(2,6-dimethyl-4-pyridyl)-2-[(4-fluorophenyl)methyl]-7-phenyl-[1,2,4]triazolo[4,3-c]pyrimidin-3-one]
7 | 501 nM | 37700 nM | > 100000 nM | 1.26 nM | Nc1nc(-c2ccccc2)c(-c2cc(CO)nc(C(F)(F)F)c2)c2nn(CCC(F)(F)F)c(=O)n12 [Example 2-53, 5-amino-8-[2-(hydroxymethyl)-6-(trifluoromethyl)-4-pyridyl]-7-phenyl-2-(3,3,3-trifluoropropyl)-[1,2,4]triazolo[4,3-c]pyrimidin-3-one]
8 | 1000 nM | 52000 nM | > 100000 nM | 2 nM | Cc1cc(-c2c(-c3ccccc3)nc(N)n3c(=O)n(CC4CCOCC4)nc23)cc(C)n1 [Example 2-73, 5-amino-8-(2,6-dimethyl-4-pyridyl)-7-phenyl-2-(tetrahydropyran-4-ylmethyl)-[1,2,4]triazolo[4,3-c]pyrimidin-3-one]
9 | 39.8 nM | 24100 nM | 7400 nM | 0.794 nM | COc1ncc(F)cc1Cn1nc2c(-c3cc(C)nc(C)c3)c(-c3ccccc3)nc(N)n2c1=O [Example 1-40, 5-amino-8-(2,6-dimethyl-4-pyridyl)-2-[(5-fluoro-2-methoxy-3-pyridyl)methyl]-7-phenyl-[1,2,4]triazolo[4,3-c]pyrimidin-3-one]
10 | 251 nM | 72700 nM | > 100000 nM | 10 nM | Cc1cc(-c2c(-c3ccccc3)nc(N)n3c(=O)n(CC(C)C)nc23)cc(C)[n+]1[O-] [Example 2-57, 5-amino-8-(2,6-dimethyl-1-oxido-pyridin-1-ium-4-yl)-2-isobutyl-7-phenyl-[1,2,4]triazolo[4,3-c]pyrimidin-3-one]
11 | 501 nM | 46100 nM | 39400 nM | 0.631 nM | Cc1ccc(Cn2nc3c(-c4cc(C)nc(CO)c4)c(-c4ccccc4)nc(N)n3c2=O)nc1 [Example 1-52, 5-amino-8-[2-(hydroxymethyl)-6-methyl-4-pyridyl]-2-[(5-methyl-2-pyridyl)methyl]-7-phenyl-[1,2,4]triazolo[4,3-c]pyrimidin-3-one]
